Results reported in paper PMC9460159 (iScience, 2022).

T1: YciM (Salmonella enterica, UniProt Q7CQG6)
T1 sequence (Q7CQG6 23-389): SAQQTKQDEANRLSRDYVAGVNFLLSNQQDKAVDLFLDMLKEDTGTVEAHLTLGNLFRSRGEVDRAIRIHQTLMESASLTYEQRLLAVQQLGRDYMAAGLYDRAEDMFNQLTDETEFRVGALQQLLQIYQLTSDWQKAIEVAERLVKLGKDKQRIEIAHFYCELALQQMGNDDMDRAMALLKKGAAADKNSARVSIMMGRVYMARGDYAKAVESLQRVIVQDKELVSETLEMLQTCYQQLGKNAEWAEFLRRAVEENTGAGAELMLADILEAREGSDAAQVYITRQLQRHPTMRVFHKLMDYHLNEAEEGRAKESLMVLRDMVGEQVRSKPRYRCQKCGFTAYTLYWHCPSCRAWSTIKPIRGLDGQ

B1: YciM cytoplasmic domain of S. typhimurium (domain or fragment, UniProt A0A0F6B1Z6 136-389, looked up)
chain: ETEFRVGALQQLLQIYQLTSDWQKAIEVAERLVKLGKDKQRIEIAHFYCELALQQMGNDDMDRAMALLKKGAAADKNSARVSIMMGRVYMARGDYAKAVESLQRVIVQDKELVSETLEMLQTCYQQLGKNAEWAEFLRRAVEENTGAGAELMLADILEAREGSDAAQVYITRQLQRHPTMRVFHKLMDYHLNEAEEGRAKESLMVLRDMVGEQVRSKPRYRCQKCGFTAYTLYWHCPSCRAWSTIKPIRGLDGQ

Key:
YciM = biological target: T1, YciM; experiment: isothermal titration calorimetry, single-site fit; type: binding
crystal structure = biological target: the molecule itself; experiment: crystal structure

Row | Molecule | Kd (YciM) | binding result (crystal structure)
1 | CCCCCCCCCCCC(O)CC(=O)O (centres unmarked) [3-hydroxymyristic acid] | 1250 ± 880 nM | –
2 | B1 | – | binds
